From patent US20110173718A1, “HERBICIDE TOLERANT PLANTS” (SYNGENTA CROP PROTECTION, INC., priority 2008, published 2011)

Tested on: weeds
Assay: Glasshouse weed control by HST/HPPD (mesotrione) mixtures, pre-emergence
Type: in vivo
Conditions: for colby: Colby synergy score; for % Damage at 14 DAA, 1 g ai ha^−1 mesotrione / % Damage at 14 DAA, no-mesotrione: N = 3
Protocol: Weed seeds are planted out in trays containing suitable soil (for example 50% peat, 50% John Innes soil no 3) and grown in the glass house conditions under 24-27° C. day; 18-21° C. night and approximately a 14 h (or longer in UK summer) photoperiod. Humidity is ˜65% and light levels up to 2000 μmol/m^2 at bench level. Trays are sprayed with test chemicals dissolved in water with 0.2-0.25% X-77 surfactant and sprayed from a boom on a suitable track sprayer moving at about 2 mph in a suitable track sprayer (for example a DeVries spray chamber with the nozzle about 2 inches from the plant tops). Spray volume is suitably 500-1000 l/ha. Sprays are carried out both pre-emergence and over small plants at about 7-12 d post-emergence
Plants are assessed 14 DAT and herbicidal damage is scored on a scale from 0 to 100%. The HST inhibitor compound 2.30 (designated compound A in table 16 and 17), haloxydine (compound 1.1) and compound 2.13 (designated compound AE in tables 16 and 17) are sprayed at rates between 0 and 500 g/ha.

[1] = ALOMY, 16 g/ha + mesotrione 1 g ai/ha
[2] = ALOMY, 31 g/ha + mesotrione 1 g ai/ha
[3] = ALOMY, 63 g/ha + mesotrione 1 g ai/ha
[4] = ALOMY, 125 g/ha + mesotrione 1 g ai/ha
[5] = ALOMY, 250 g/ha + mesotrione 1 g ai/ha
[6] = ALOMY, 500 g/ha + mesotrione 1 g ai/ha
[7] = AMARE, 16 g/ha + mesotrione 1 g ai/ha
[8] = AMARE, 31 g/ha + mesotrione 1 g ai/ha
[9] = AMARE, 63 g/ha + mesotrione 1 g ai/ha
[10] = AMARE, 125 g/ha + mesotrione 1 g ai/ha
[11] = AMARE, 250 g/ha + mesotrione 1 g ai/ha
[12] = AMARE, 500 g/ha + mesotrione 1 g ai/ha
[13] = ECHCG, 16 g/ha + mesotrione 1 g ai/ha
[14] = ECHCG, 31 g/ha + mesotrione 1 g ai/ha
[15] = ECHCG, 63 g/ha + mesotrione 1 g ai/ha
[16] = ECHCG, 125 g/ha + mesotrione 1 g ai/ha
[17] = ECHCG, 250 g/ha + mesotrione 1 g ai/ha
[18] = ECHCG, 500 g/ha + mesotrione 1 g ai/ha
[19] = IPOHE, 16 g/ha + mesotrione 1 g ai/ha
[20] = IPOHE, 31 g/ha + mesotrione 1 g ai/ha
[21] = IPOHE, 63 g/ha + mesotrione 1 g ai/ha
[22] = IPOHE, 125 g/ha + mesotrione 1 g ai/ha
[23] = IPOHE, 250 g/ha + mesotrione 1 g ai/ha
[24] = IPOHE, 500 g/ha + mesotrione 1 g ai/ha
[25] = SETFA, 16 g/ha + mesotrione 1 g ai/ha
[26] = SETFA, 31 g/ha + mesotrione 1 g ai/ha
[27] = SETFA, 63 g/ha + mesotrione 1 g ai/ha
[28] = SETFA, 125 g/ha + mesotrione 1 g ai/ha
[29] = SETFA, 250 g/ha + mesotrione 1 g ai/ha
[30] = SETFA, 500 g/ha + mesotrione 1 g ai/ha
[31] = SOLNI, 16 g/ha + mesotrione 1 g ai/ha
[32] = SOLNI, 31 g/ha + mesotrione 1 g ai/ha
[33] = SOLNI, 63 g/ha + mesotrione 1 g ai/ha
[34] = SOLNI, 125 g/ha + mesotrione 1 g ai/ha
[35] = SOLNI, 250 g/ha + mesotrione 1 g ai/ha
[36] = SOLNI, 500 g/ha + mesotrione 1 g ai/ha

Structure (SMILES): O=c1c(Cl)c(F)[nH]c(F)c1Cl [Haloxidine]
- colby [1]: 5%
- % Damage at 14 DAA, 1 g ai ha^−1 mesotrione [1]: 8%
- % Damage at 14 DAA, no-mesotrione (ALOMY, 16 g/ha): 3%
- colby [2]: 12%
- % Damage at 14 DAA, 1 g ai ha^−1 mesotrione [2]: 25%
- % Damage at 14 DAA, no-mesotrione (ALOMY, 31 g/ha): 13%
- colby [3]: 8%
- % Damage at 14 DAA, 1 g ai ha^−1 mesotrione [3]: 50%
- % Damage at 14 DAA, no-mesotrione (ALOMY, 63 g/ha): 42%
- colby [4]: 10%
- % Damage at 14 DAA, 1 g ai ha^−1 mesotrione [4]: 77%
- % Damage at 14 DAA, no-mesotrione (ALOMY, 125 g/ha): 67%
- colby [5]: −3%
- % Damage at 14 DAA, 1 g ai ha^−1 mesotrione [5]: 78%
- % Damage at 14 DAA, no-mesotrione (ALOMY, 250 g/ha): 82%
- colby [6]: −2%
- % Damage at 14 DAA, 1 g ai ha^−1 mesotrione [6]: 83%
- % Damage at 14 DAA, no-mesotrione (ALOMY, 500 g/ha): 85%
- colby [7]: 2%
- % Damage at 14 DAA, 1 g ai ha^−1 mesotrione [7]: 42%
- % Damage at 14 DAA, no-mesotrione (AMARE, 16 g/ha): 38%
- colby [8]: 1%
- % Damage at 14 DAA, 1 g ai ha^−1 mesotrione [8]: 75%
- % Damage at 14 DAA, no-mesotrione (AMARE, 31 g/ha): 73%
- colby [9]: 5%
- % Damage at 14 DAA, 1 g ai ha^−1 mesotrione [9]: 93%
- % Damage at 14 DAA, no-mesotrione (AMARE, 63 g/ha): 88%
- colby [10]: 0%
- % Damage at 14 DAA, 1 g ai ha^−1 mesotrione [10]: 100%
- % Damage at 14 DAA, no-mesotrione (AMARE, 125 g/ha): 100%
- colby [11]: 0%
- % Damage at 14 DAA, 1 g ai ha^−1 mesotrione [11]: 100%
- % Damage at 14 DAA, no-mesotrione (AMARE, 250 g/ha): 100%
- colby [12]: 0%
- % Damage at 14 DAA, 1 g ai ha^−1 mesotrione [12]: 100%
- % Damage at 14 DAA, no-mesotrione (AMARE, 500 g/ha): 100%
- colby [13]: 7%
- % Damage at 14 DAA, 1 g ai ha^−1 mesotrione [13]: 20%
- % Damage at 14 DAA, no-mesotrione (ECHCG, 16 g/ha): 13%
- colby [14]: −2%
- % Damage at 14 DAA, 1 g ai ha^−1 mesotrione [14]: 23%
- % Damage at 14 DAA, no-mesotrione (ECHCG, 31 g/ha): 25%
- colby [15]: 13%
- % Damage at 14 DAA, 1 g ai ha^−1 mesotrione [15]: 53%
- % Damage at 14 DAA, no-mesotrione (ECHCG, 63 g/ha): 40%
- colby [16]: 5%
- % Damage at 14 DAA, 1 g ai ha^−1 mesotrione [16]: 78%
- % Damage at 14 DAA, no-mesotrione (ECHCG, 125 g/ha): 73%
- colby [17]: −8%
- % Damage at 14 DAA, 1 g ai ha^−1 mesotrione [17]: 83%
- % Damage at 14 DAA, no-mesotrione (ECHCG, 250 g/ha): 92%
- colby [18]: 7%
- % Damage at 14 DAA, 1 g ai ha^−1 mesotrione [18]: 95%
- % Damage at 14 DAA, no-mesotrione (ECHCG, 500 g/ha): 88%
- colby [19]: 0%
- % Damage at 14 DAA, 1 g ai ha^−1 mesotrione [19]: 0%
- % Damage at 14 DAA, no-mesotrione (IPOHE, 16 g/ha): 0%
- colby [20]: 0%
- % Damage at 14 DAA, 1 g ai ha^−1 mesotrione [20]: 0%
- % Damage at 14 DAA, no-mesotrione (IPOHE, 31 g/ha): 0%
- colby [21]: −7%
- % Damage at 14 DAA, 1 g ai ha^−1 mesotrione [21]: 8%
- % Damage at 14 DAA, no-mesotrione (IPOHE, 63 g/ha): 15%
- colby [22]: −10%
- % Damage at 14 DAA, 1 g ai ha^−1 mesotrione [22]: 52%
- % Damage at 14 DAA, no-mesotrione (IPOHE, 125 g/ha): 62%
- colby [23]: −13%
- % Damage at 14 DAA, 1 g ai ha^−1 mesotrione [23]: 67%
- % Damage at 14 DAA, no-mesotrione (IPOHE, 250 g/ha): 80%
- colby [24]: 3%
- % Damage at 14 DAA, 1 g ai ha^−1 mesotrione [24]: 87%
- % Damage at 14 DAA, no-mesotrione (IPOHE, 500 g/ha): 83%
- colby [25]: 10%
- % Damage at 14 DAA, 1 g ai ha^−1 mesotrione [25]: 10%
- % Damage at 14 DAA, no-mesotrione (SETFA, 16 g/ha): 0%
- colby [26]: 7%
- % Damage at 14 DAA, 1 g ai ha^−1 mesotrione [26]: 32%
- % Damage at 14 DAA, no-mesotrione (SETFA, 31 g/ha): 25%
- colby [27]: 8%
- % Damage at 14 DAA, 1 g ai ha^−1 mesotrione [27]: 58%
- % Damage at 14 DAA, no-mesotrione (SETFA, 63 g/ha): 50%
- colby [28]: 2%
- % Damage at 14 DAA, 1 g ai ha^−1 mesotrione [28]: 90%
- % Damage at 14 DAA, no-mesotrione (SETFA, 125 g/ha): 88%
- colby [29]: 0%
- % Damage at 14 DAA, 1 g ai ha^−1 mesotrione [29]: 95%
- % Damage at 14 DAA, no-mesotrione (SETFA, 250 g/ha): 95%
- colby [30]: 2%
- % Damage at 14 DAA, 1 g ai ha^−1 mesotrione [30]: 98%
- % Damage at 14 DAA, no-mesotrione (SETFA, 500 g/ha): 97%
- colby [31]: 30%
- % Damage at 14 DAA, 1 g ai ha^−1 mesotrione [31]: 47%
- % Damage at 14 DAA, no-mesotrione (SOLNI, 16 g/ha): 0%
- colby [32]: 21%
- % Damage at 14 DAA, 1 g ai ha^−1 mesotrione [32]: 60%
- % Damage at 14 DAA, no-mesotrione (SOLNI, 31 g/ha): 27%
- colby [33]: 18%
- % Damage at 14 DAA, 1 g ai ha^−1 mesotrione [33]: 75%
- % Damage at 14 DAA, no-mesotrione (SOLNI, 63 g/ha): 48%
- colby [34]: 3%
- % Damage at 14 DAA, 1 g ai ha^−1 mesotrione [34]: 92%
- % Damage at 14 DAA, no-mesotrione (SOLNI, 125 g/ha): 87%
- colby [35]: 4%
- % Damage at 14 DAA, 1 g ai ha^−1 mesotrione [35]: 100%
- % Damage at 14 DAA, no-mesotrione (SOLNI, 250 g/ha): 95%
- colby [36]: 0%
- % Damage at 14 DAA, 1 g ai ha^−1 mesotrione [36]: 100%
- % Damage at 14 DAA, no-mesotrione (SOLNI, 500 g/ha): 100%
